Laboratory results taken from patent US11660349B2, “Non-linear multiblock copolymer-drug conjugates for the delivery of active agents” (priority 2012, dated 2023).
Entries after “also recorded” stand apart in the source; their conditions may differ.

Columns and labels:
Adult C57BL/6 mice [1] = experiment: Electroretinograms (ERGs), retinal function after intraocular injection
Method: For scotopic recordings, mice were dark adapted overnight, and for photopic recordings, mice were adapted for 10 min to background white light at an intensity of 30 cd/m^2. The mice were anesthetized with an intraperitoneal injection of ketamine hydrochloride (100 mg/kg body weight) and xylazine (5 mg/kg body weight). Pupils were dilated with Midrin P containing of 0.5% tropicamide and 0.5% phenylephrine, hydrochloride (Santen Pharmaceutical Co., Osaka, Japan). The mice were placed on a pad heated to 39° C. and platinum loop electrodes were placed on each cornea after application of Gonioscopic prism solution (Alcon Labs, Fort Worth, Tex.). A reference electrode was placed subcutaneously in the anterior scalp between the eyes and a ground electrode was inserted into the tail. The head of the mouse was held in a standardized position in a ganzfeld bowl illuminator that ensured equal illumination of the eyes. Recordings for both eyes were made simultaneously with electrical impedance balanced. Scotopic ERGs were recorded at 11 intensity levels of white light ranging from −3.00 to 1.40 log cd-s/m2. Six measurements were averaged for each flash intensity. Photopic ERGs were recorded at three intensity levels of white light ranging from 0.60 to 1.40 log cd-s/m2 with a 30 cd/m2 background. Five measurements were averaged for each flash intensity.

[2] = test system: C57BL/6 mice with oxygen-induced ischemic retinopathy; experiment: Oxygen-induced ischemic retinopathy, area of retinal NV; format: in vivo, mouse (C57BL/6); conditions: five days after administration (P17), vs vehicle
Method: At P17, the area of retinal NV on the surface of the retina was measured. […] Retinas were dissected, washed, and incubated with goat-anti rat polyclonal antibody conjugated with Alexa 488 (Invitrogen, Carlsbad, Calif.) at 1:500 dilution at room temperature for 45 minutes and flat mounted. An observer masked with respect to treatment group measured the area of NV per retina by image analysis.

[3] = test system: mice with laser-induced choroidal NV; experiment: Laser-induced choroidal NV (CNV) mouse model; format: in vivo, mouse (C57BL/6); conditions: 14 days, vs vehicle-injected fellow eyes
Method: Pathogen-free C57BL/6 mice (Charles River, Wilmington, Mass.) were treated in accordance with the Association for Research in Vision and Ophthalmology Statement for the Use of Animals in Ophthalmic and Vision Research and the guidelines of the Johns Hopkins University Animal Care and Use Committee.
Choroidal NV was induced by laser photocoagulation-induced rupture of Bruch's membrane as previously described (Tobe, T. et al., Am. J. Pathol. 135(5): 1641-1646(1998)). […] Laser photocoagulation (75 μm spot size, 0.1 sec duration, 120 mW) was performed in the 9, 12, and 3 o'clock positions of the posterior pole of each eye with the slit lamp delivery system of an OcuLight GL diode laser (Iridex, Mountain View, Calif.) and a handheld cover slip as a contact lens to view the retina. Production of a bubble at the time of laser, which indicates rupture of Bruch's membrane, is an important factor in obtaining CNV; therefore, only burns in which a bubble was produced were included in the study.
Immediately after laser-induced rupture of Bruch's membrane, mice were randomized to various treatment groups for intraocular injections. Intravitreal injections were done under a dissecting microscope with a Harvard Pump Microinjection System and pulled glass micropipettes.
At 1, 4, 7, and 14 days after injection, fundus photographs were taken with a Micron III® camera (Phoenix Research Laboratories Inc., Pleasanton, Calif.). After 14 days, the mice were perfused with 1 ml of PBS containing 25 mg/ml of fluorescein-labeled dextran (2×10^6 Daltons average molecular weight; Sigma-Aldrich, St. Louis, Mo.) and choroidal flat mounts were examined by fluorescence microscopy. Images were captured with a Nikon Digital Still Camera DXM1200 (Nikon Instruments Inc., New York, N.Y.). Image analysis software (Image-Pro® Plus; Media Cybernetics, Silver Spring, Md.) was used to measure the total area of CNV at each rupture site with the investigator masked with respect to treatment group.

[4] = test system: HIF-1 transcriptional activity and ocular NV; conditions: intraocular injections of 0.01-0.25 μg; cited from earlier work
Adult C57BL/6 mice [5] = experiment: Outer nuclear layer (ONL) thickness; format: in vivo, mouse (C57BL/6); conditions: 0.25 μg intraocular; one week after injection
Method: ONL thickness was measured. […] Mice were euthanized, a mark was placed at 12:00 at the corneal limbus, and eyes were removed and embedded in optimal cutting temperature compound. Ten micrometer frozen sections were cut parallel to the 12:00 or 9:00 meridian through the optic nerve and fixed in 4% paraformaldehyde. The sections were stained with hematoxylin and eosin, examined with an Axioskop microscope (Zeiss, Thornwood, N.Y.), and images were digitized using a three charge-coupled device (CCD) color video camera (IK-TU40A; Toshiba, Tokyo, Japan) and a frame grabber. Image-Pro Plus software (Media Cybernetics, Silver Spring, Md.) was used to outline the ONL.

[6] = 1 μg intraocular, fourteen days after injection
[7] = 0.1 μg intraocular after rupture of Bruch's membrane
[8] = 1.0 μg intraocular after rupture of Bruch's membrane
[9] = 10 μg intraocular after rupture of Bruch's membrane

Structure (SMILES) | mean scotopic and photopic b-wave amplitudes (Adult C57BL/6 mice [1]; [6]) | area of RNV ([2]; 0.01 μg intraocular at P12) | area of RNV ([2]; 0.1 μg intraocular at P12) | area of RNV ([2]; 1.0 μg intraocular at P12) | area of CNV [3, 7] | area of CNV [3, 8] | area of CNV [3, 9] | mean scotopic and photopic b-wave amplitudes (Adult C57BL/6 mice [1]; 0.05 μg intraocular) | ERG amplitudes (scotopic a-wave, scotopic b-wave, photopic b-wave) (Adult C57BL/6 mice [1]; 0.25 μg intraocular, one week after injection) | HIF-1 transcriptional activity and ocular NV [4] | outer nuclear layer thickness (Adult C57BL/6 mice [5])
COc1cccc2c1C(=O)c1c(O)c3c(c(O)c1C2=O)C[C@@](O)(C(C)=O)C[C@@H]3O[C@H]1C[C@H](N)[C@H](O)[C@H](C)O1 [DNR, daunorubicin] | significant reduction in mean scotopic and photopic b-wave amplitudes | had no significant effect; also recorded: did not show a statistically significant reduction in the area of RNV | caused a small reduction; also recorded: statistically significant reduction in the area of RNV | markedly reduced the area of retinal NV; also recorded: statistically significant reduction in the area of RNV | had no significant effect; also recorded: did not show a statistically significant reduction in the area of CNV | had no significant effect; also recorded: did not show a statistically significant reduction in the area of CNV | suppressed choroidal NV; also recorded: statistically significant reduction in the area of CNV |  |  |  | 
COc1cccc2c1C(=O)c1c(O)c3c(c(O)c1C2=O)C[C@@](O)(C(=O)CO)C[C@@H]3O[C@H]1C[C@H](N)[C@H](O)[C@H](C)O1 [DXR, doxorubicin] | significant reduction in mean scotopic and photopic b-wave amplitudes | but not 0.1 or 0.01 μg, significantly reduced the area of retinal NV; also recorded: did not show a statistically significant reduction in the area of RNV | but not 0.1 or 0.01 μg, significantly reduced the area of retinal NV; also recorded: did not show a statistically significant reduction in the area of RNV | significantly reduced the area of retinal NV; also recorded: statistically significant reduction in the area of RNV | did not have a significant effect; also recorded: did not show a statistically significant reduction in the area of CNV | did not have a significant effect; also recorded: did not show a statistically significant reduction in the area of CNV | suppressed choroidal NV; also recorded: statistically significant reduction in the area of CNV |  |  |  | 
C[C@H]1O[C@@H](O[C@H]2[C@@H](O)C[C@H](O[C@H]3[C@@H](O)C[C@H](O[C@H]4CC[C@@]5(C)[C@H](CC[C@@H]6[C@@H]5C[C@@H](O)[C@]5(C)[C@@H](C7=CC(=O)OC7)CC[C@]65O)C4)O[C@@H]3C)O[C@@H]2C)C[C@H](O)[C@@H]1O [digoxin] |  |  |  |  |  |  |  | significant reduction in mean scotopic and photopic b-wave amplitudes | significant reduction in mean scotopic a-wave amplitude, mean scotopic b-wave amplitude, and mean photopic b-wave amplitude | suppress HIF-1 transcriptional activity and ocular NV | reduction in outer nuclear layer thickness at 3 of 6 measurement locations
